# Experiments:
# MDCKII-Flp cells = test: [3H]cholesterol flux into MDCKII-Flp cells; type: cell-based, dog; settings: 10 μM PS, 5.5% βmCD pre-treatment
# Method: (§1) Flux assays were performed essentially as described by Yu et al., 2006 J Biol. Chem. 281:6616-6624. Briefly, cell growth medium was completely aspirated and replaced with 200 μl of 5% LPDS containing the appropriate concentration of compound and incubated at 37° C./3 h in a 5% CO2 incubator. Media was subsequently aspirated from cells and cells were incubated in 200 μl of 0-5.5% βmCD dissolved and filtered through a […] filter at 37° C./45 minutes in a 5% CO2 incubator. Media was dumped from cells that were then washed twice with 125 μl of 5% LPDS before media was aspirated and [3H]cholesterol complexed to BSA in 5% LPDS was added; see Yu et al., 2006 J. Biol. Chem. 281:6616-6624. After 45 minute incubation, cells were washed twice with DMEM, thoroughly aspirated and then 1% SDS was added prior to extraction for scintillation counting.
# To validate MDCKII cells as an appropriate surrogate system for monitoring NPC1L1-dependent processes, we evaluated their ability to perform EZE-sensitive cholesterol flux using a similar protocol to that recently reported. This assay makes use of the ability of βmCD to deplete membrane-bound cholesterol. Subsequent exposure of cells to [^3H] cholesterol provides a time-dependent flux of this substrate into the cells. […]
# dog NPC1L1 = dog NPC1L1 (Canis lupus familiaris, UniProt A0A8I3RZG1); test: [3H]cholesterol flux into dNPC1L1/MDCKII-Flp cells; type: cell-based
# Method: as §1
# Further evidence for the role of NPC1L1 expression levels on EZE-sensitive [^3H]cholesterol influx was obtained by analyzing the properties of MDCKII-Flp cells over-expressing dog NPC1L1 (dNPC1L1/MDCKII-Flp cells) in an inducible manner.
# To further characterize the [^3H] cholesterol influx process into MDCK cells, the potency of EZE-like compound PS for inhibiting [^3H] cholesterol uptake was determined. […]
# Chain of dog NPC1L1 (A0A8I3RZG1 entry or part of it): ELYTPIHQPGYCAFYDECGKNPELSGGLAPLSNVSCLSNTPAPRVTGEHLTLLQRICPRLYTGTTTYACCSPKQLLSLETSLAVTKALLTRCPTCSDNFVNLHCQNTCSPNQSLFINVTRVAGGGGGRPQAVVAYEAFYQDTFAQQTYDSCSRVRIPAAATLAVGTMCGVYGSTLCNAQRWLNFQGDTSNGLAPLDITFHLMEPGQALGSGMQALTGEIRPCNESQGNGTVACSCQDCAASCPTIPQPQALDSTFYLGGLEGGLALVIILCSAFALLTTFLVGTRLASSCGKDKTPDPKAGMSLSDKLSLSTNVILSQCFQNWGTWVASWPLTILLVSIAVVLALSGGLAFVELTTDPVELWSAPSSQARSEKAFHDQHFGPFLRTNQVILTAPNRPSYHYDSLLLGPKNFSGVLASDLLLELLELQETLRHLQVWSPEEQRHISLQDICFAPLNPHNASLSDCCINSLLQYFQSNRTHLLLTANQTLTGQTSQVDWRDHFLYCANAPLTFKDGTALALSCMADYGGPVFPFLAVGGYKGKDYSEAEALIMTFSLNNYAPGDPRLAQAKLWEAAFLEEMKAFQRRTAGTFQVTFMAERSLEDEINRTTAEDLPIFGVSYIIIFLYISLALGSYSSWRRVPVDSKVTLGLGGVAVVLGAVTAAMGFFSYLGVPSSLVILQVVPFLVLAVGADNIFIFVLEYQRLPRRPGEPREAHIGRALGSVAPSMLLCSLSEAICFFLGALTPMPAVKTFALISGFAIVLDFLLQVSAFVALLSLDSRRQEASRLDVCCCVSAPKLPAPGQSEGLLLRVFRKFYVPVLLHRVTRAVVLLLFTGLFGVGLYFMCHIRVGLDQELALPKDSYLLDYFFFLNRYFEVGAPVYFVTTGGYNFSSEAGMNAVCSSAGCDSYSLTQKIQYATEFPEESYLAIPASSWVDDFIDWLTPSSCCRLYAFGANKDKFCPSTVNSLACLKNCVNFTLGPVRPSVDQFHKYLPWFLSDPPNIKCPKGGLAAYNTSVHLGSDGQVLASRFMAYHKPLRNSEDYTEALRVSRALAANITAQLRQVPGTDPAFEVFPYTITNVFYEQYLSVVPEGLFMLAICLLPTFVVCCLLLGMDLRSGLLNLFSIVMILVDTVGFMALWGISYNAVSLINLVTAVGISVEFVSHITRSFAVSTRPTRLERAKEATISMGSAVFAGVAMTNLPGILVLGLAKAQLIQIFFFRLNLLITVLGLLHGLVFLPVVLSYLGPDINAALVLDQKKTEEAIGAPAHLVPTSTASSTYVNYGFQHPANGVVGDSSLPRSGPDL
structure (smiles),measurement,setting,value
"COC(=O)[C@H]1O[C@@H](Oc2ccc([C@@H]3[C@@H](CC[C@H](O)c4ccc(F)cc4)C(=O)N3c3ccc(C#CCNS(C)(=O)=O)cc3)cc2)[C@H](O)[C@@H](O)[C@@H]1O [PS, 4-[(2S,3R)-3-[(3S)-3-(4-fluorophenyl)-3-hydroxypropyl]-1-(4-{3-[(methylsulfonyl)amino]prop-1-yn-1-yl}phenyl)-4-oxoazetidin-2-yl]phenyl methyl-β-D-glucopyranosiduronate]",blockade of [3H]cholesterol influx,MDCKII-Flp cells,marginally blocked
same,blockade of [3H]cholesterol influx,"dog NPC1L1; 10 μM PS, 5.5% βmCD, after induction with 4 mM sodium butyrate",almost completely blocked
same,IC50,"dog NPC1L1; dNPC1L1/MDCKII-Flp, FIG. 7C, read-out: IC50 inhibition of [3H]cholesterol uptake",0.32 ± 0.09 nM

# Source: US20100184094A1, “USE OF MDCK CELLS IN THE EVALUATION OF CHOLESTEROL MODULATORS” (priority 2007, published 2010)
